Experimental data as given in patent publication US20220187282A1, “CARDIOMYOCYTE PROLIFERATION” (The Council of the Queensland Institute of Medical Research, priority 2019, published 2022).

Legend:
[1] = system: mature hCOs; assay: mature hCO, force of contraction; type: cell-based, human; conditions: 2 days, compound 3 at 3 μM, 63 at 0.3 μM, 65 at 1 μM
Procedure: hCOs were cultured in CTRL medium for formation for 5 days and then either kept in CTRL medium culture or changed to maturation medium (Mills et al., 2017a) comprising DMEM without glucose, glutamine and phenol red (ThermoFisher Scientific) supplemented with 4% […](without insulin) (ThermoFisher Scientific), 1% GlutaMAX (ThermoFisher Scientific), 200 μM L-ascorbic acid 2-phosphate sesquimagnesium salt hydrate and 1% Penicillin/Streptomycin (ThermoFisher Scientific), 1 mmol/L glucose and 100 μmon palmitic acid (conjugated to bovine serum albumin within B27 by incubating for 2h at 37° C., Sigma) with changes every 2-3 days.
The pole deflection was used to approximate the force of contraction as per (Mills et al., 2017a). A Leica DMi8 inverted high content Imager was used to capture a 10 s time-lapse of each hCO contracting in real time at 37° C. […]
Hits were next validated in mature hCOs using a targeted concentration range based on their active concentrations in the initial immature hCO screen (FIG. 3A). Proliferation markers were quantified using high magnification confocal imaging as we found flow cytometry to be inaccurate in hCO (data not shown). […]

[2] = system: mature hCOs; assay: mature hCO, mitosis (pH3) of cardiomyocytes; type: cell-based, human; conditions: 2 days, optimal concentrations
Procedure: Whole-Mount Immunostaining hCOs were fixed for 60 min with 1% paraformaldehyde (Sigma) at room temperature and washed 3× with PBS, after which they were incubated with primary antibodies (see Star Methods Table) in Blocking Buffer, 5% FBS and 0.2% Triton-X-100 (Sigma) in PBS overnight at 4° C. Cells were then washed in Blocking Buffer 2× for 2 h and subsequently incubated with secondary antibodies (see Star Methods Table) and Hoechst33342 (1:1000) overnight at 4° C. They were washed in Blocking Buffer 2× for 2 h and imaged in situ or mounted on microscope slides using Fluoromount-G (Southern Biotech).
(§1) For more detailed images an Olympus IX81 confocal microscope was used for mounted hCO imaging. For cell cycle analysis experiments 3 random fields of view were imaged and manually quantified for proliferation. These were added together to calculate the percentage of hPSC-CM proliferation in each hCO.
Hits were next validated in mature hCOs using a targeted concentration range based on their active concentrations in the initial immature hCO screen (FIG. 3A). Proliferation markers were quantified using high magnification confocal imaging as we found flow cytometry to be inaccurate in hCO (data not shown). Compounds 3, 63 and 65 had no impact on contractile force (FIG. 3B) at concentrations of 3 μM, 0.3 μM and 1 μM, respectively. […]

[3] = system: hPSC-CMs; assay: 2D high-content primary screen, DNA synthesis (EdU) in hPSC-CM; type: cell-based, human; conditions: for 2D Screen Max Effect (%): maximum over 0.1, 1, 10 uM
From the text: The compound library included 5,000 biologically annotated pre-clinical, clinical, and tool compounds. They were selected based on a combination of criteria including balancing the number of external/internal compounds, diversity of annotated targets to cover greater than 1500 biological targets, and known targets associated with cell proliferation. […] Both negative vehicle (DMSO) and positive (CHIR99021) controls were included on each plate in each experiment (FIG. 2B,C).

[4] = pharmacokinetic properties in vivo
[5] = system: mature hCOs; assay: mature hCO, cardiomyocyte number, hCO size, bi-nucleation, cardiomyocyte size; type: cell-based, human; conditions: for cardiomyocyte number / bi-nucleation / hCO size (α-actinin area): 3 μM compound 3 or 1 μM compound 65; for bi-nucleation: 4 days; for hCO size (α-actinin area): 7 days
Procedure: as §1
Cells were dissociated by washing in perfusion buffer at 37° C. (130 mM NaCl, 1 mM MgCl2, 5 mM KCl, 0.5 mM NaH2PO4, 10 mM HEPES, 10 mM Taurine, 10 mM glucose, 10 μM 2,3-butanedione monoxime, pH 7.4). hCO were then incubated in EDTA buffer at 37° C. for 5 min (130 mM NaCl, 5 mM KCl, 0.5 mM NaH2PO4, 10 mM HEPES, 10 mM Taurine, 10 mM glucose, 5 mM EDTA, 10 μM 2,3-butanedione monoxime, pH 7.4). hCO were washed in perfusion buffer and then incubated in perfusion buffer plus 1 mg/ml collagenase B (Roche) for 15 min at 37° C. on a shaker at 500 rpm. Equivolume 0.25% trypsin-EDTA (ThermoFisher) was then added and the hCOs were incubated for 10 min at 37° C. on a shaker at 500 rpm. Perfusion buffer with 5% FBS was then added and the single cells pelleted by centrifuging at 1000×g for 3 min. The cells were then resuspended in 1% para-formaldehyde and incubated for 5 min at room temperature. hCO were then centrifuged at 1000×g for 3 min, paraformaldehyde removed, suspended in PBS and counted using a haemocytometer.
Hits were next validated in mature hCOs using a targeted concentration range based on their active concentrations in the initial immature hCO screen (FIG. 3A). Proliferation markers were quantified using high magnification confocal imaging as we found flow cytometry to be inaccurate in hCO (data not shown). Compounds 3, 63 and 65 had no impact on contractile force (FIG. 3B) at concentrations of 3 μM, 0.3 μM and 1 μM, respectively. […] The effects of both compound 3 and compound 65 were reversible, with proliferation ceasing within 5 days of compound withdrawal (FIG. 8B). Therefore, compound 3 (FIG. 3G) and compound 65 (Goldberg et al., 2009) (FIG. 3H) are both capable of inducing bona fide cardiomyocyte proliferation in mature hCOs without adversely affecting contractile properties.

[6] = system: NAP1L1 Cys-388, NAP1L4 Cys-383; assay: quantifying prenylated (farnesylated) proteins in hCO proteomics; type: cell-based, human
Procedure: Targeted data extraction to quantify prenylated peptides was performed manually in the Skyline Environment (MacLean et al., 2010) on Andremoda/MaxQuant search results which included the variable modification of farnesylation (cysteine; C15H24; 204.1878) and geranylation (cysteine; […]; 272.2504) with neutral loss. Only peptides with an Andromeda score >100 and a localization probability >0.75% were included in the analysis.
Given that several metabolites of the mevalonate pathway are required for post-translational modifications such as prenylation, we next performed targeted data extraction of our proteomic analysis (Gillet et al., 2012) for the addition of geranylgeranyl or farnesyl groups. We identified key targets of farnesylation, including NAP1L1 at Cys-388, which was also shown to be farnesylated in a prior study (Kho et al., 2004), and NAP1L4 at Cys-383, which we have identified as a novel farnesylated protein (FIG. 15C).

| SMILES | contractile force [1] | cell cycle progression and mitosis of cardiomyocytes (pH3+) [2] | 2D Screen (AZ) 0.1 uM Prolif Activation EdU (%) [3] | 2D Screen (AZ) 1 uM Prolif Activation EdU (%) [3] | 2D Screen (AZ) 10 uM Prolif Activation EdU (%) [3] | 2D Screen Max Effect (%) [3] | pharmacokinetic properties [4] | cardiomyocyte size with 10 μM simvastatin ([5]; 3 μM compound 3, 2 days) | cardiomyocyte number [5] | cardiomyocyte size ([5]; 3 μM, 2 days) | bi-nucleation [5] | hCO size (α-actinin area) [5] | cardiomyocyte size ([5]; compound 3 or compound 65) | farnesylation of NAP1L1 at Cys-388 [6] | farnesylation of NAP1L4 at Cys-383 [6] | cardiomyocyte size, combined with 10 μM simvastatin ([5]; 1 μM, 2 days) |
| --- | --- | --- | --- | --- | --- | --- | --- | --- | --- | --- | --- | --- | --- | --- | --- | --- |
| Cc1ccc(NC(=O)c2ccnc(N3CCOCC3)c2)cc1Nc1ccnc(N2CC(C)OC(C)C2)n1 (centres unmarked) [compound 3] | no impact | promoted cell cycle progression and mitosis | −6% | 35% | 183% | 183% | poor | without significant changes | increase | decreases | without an increase | increase | without an increase | increased | only increased farnesylation of NAP1L1 |  |
| Cc1cc(Oc2ccnc(Nc3ccc(S(N)(=O)=O)cc3)c2)c(-c2ccccn2)nc1C [compound 65] | no impact | promoted cell cycle progression and mitosis | 48% | 76% | 171% | 171% | poor |  | increase |  | without an increase | increase | without an increase | increased | increased | increased |
